From PMC12523303, “Multi-Fused S,N-Heterocyclic Compounds for Targeting α-Synuclein Aggregates” (Cells, 2025)

Legend:
[1] = biological target: T1, α-synuclein (α-syn) aggregates in PD brain homogenates (Homo sapiens, UniProt P37840); assay: Two point screening assay (30 nM and 300 nM) vs [3H]asyn-44 in human PD brain homogenates; assay type: binding; settings: for % [3H]asyn-44 remaining at 30 nM: 30 nM competitor; for % [3H]asyn-44 remaining at 300 nM: 300 nM competitor
T1 construct: Anterior cingulate cortex tissue from a Parkinson’s disease (PD) case; tissue Banner Sun Health Research Institute (Dr. Thomas Beach); host or cells: post-mortem human PD anterior cingulate cortex homogenate
Experimental: Screening assays for the test compounds were performed at two concentrations—30 nM and 300 nM—using unlabelled competitors in human PD brain homogenates against [^3H]asyn-44 as previously described. […] Each assay was conducted in triplicate for both concentrations to ensure reproducibility and statistical reliability.

[2] = biological target: T1, α-synuclein (α-syn) aggregates in PD brain homogenates; assay: In vitro competition (Ki) assay vs [3H]asyn-44 in PD brain homogenates; assay type: binding; settings: 1 nM [3H]asyn-44
Experimental: Anterior cingulate cortex tissue from a Parkinson’s disease (PD) case was generously provided by Dr. Thomas Beach at the Banner Sun Health Research Institute in Arizona, USA. […] Preparation of the frozen blocks for binding assays followed previously established protocols.
The equilibrium inhibition constants (Ki) for the unlabelled compounds were measured against [^3H]asyn-44 using our previously reported procedure. For these assays, frozen aliquots of homogenized human brain tissue (stored at −80 °C) were used. Homogenates were prepared at 10 mg/mL in phosphate-buffered saline, then diluted with 50 mM Tris buffer (pH 7.0) to a working concentration of 1 mg/mL.
Unlabeled competitor compounds were initially dissolved in DMSO at 400 μM, then diluted with Tris buffer to 20 μM, resulting in a 5% DMSO concentration. A serial dilution series (ranging from 6 μM to 4 nM) was prepared in the same 5% DMSO/Tris buffer solution to maintain consistent solvent conditions throughout the assay.
To perform the binding assay, 50 μL of the appropriately diluted competitor solution was mixed with 50 μL of [^3H]asyn-44 (1 nM final concentration) and 800 μL of Tris buffer containing 20% ethanol and 0.1% bovine serum albumin (BSA). Then, 100 μL of the 1 mg/mL brain homogenate was added, bringing the final tissue concentration to 100 μg/mL. The reaction mixtures were incubated at room temperature for 60 min before filtration through Whatman GF/B glass fibre filters using a Brandel M-24R cell harvester (Gaithersburg, MD, USA). Filters were washed three times with 3 mL of Tris buffer containing 20% ethanol and 0.1% BSA.
After washing, retained radioactivity was measured using CytoScint-ES scintillation fluid following thorough vortexing. Specific binding was calculated by correcting for nonspecific binding (as described later), and the amount of bound radioligand was derived from the filter-associated radioactivity and the molar activity of the tritiated compound.

SMILES | % [3H]asyn-44 remaining at 30 nM [1] [%] | % [3H]asyn-44 remaining at 300 nM [1] [%] | Ki [2] [nM]
CC1CCN(c2ncc(-c3ccc4sc(-c5cccnc5)cc4n3)cc2F)C1 (stereo not shown) [LMD-001] | 72 | 39 | –
Fc1cc(-c2ccc3sc(-c4cccnc4)cc3n2)cnc1N1CCCC1 [LMD-002] | 57 | 21 | –
Cn1ccc(-c2cc3nc(-c4ccc(N5CCC(F)C5)nc4)ccc3s2)n1 (stereo not shown) [LMD-005] | 112 | 64 | –
FC1CCN(c2cnc(-c3ccc4sc(-c5cccnc5)cc4n3)cn2)C1 (stereo not shown) [LMD-009] | 45 | 17 | –
Cn1ccc(-c2cc3nc(-c4cnc(N5CCC(F)C5)cn4)ccc3s2)n1 (stereo not shown) [LMD-013] | 87 | 58 | –
F[C@@H]1CCN(c2cnc(-c3ccc4sc(-c5cncs5)cc4n3)cn2)C1 [LMD-014] | 45 | 20 | –
COc1cncc(-c2cc3nc(-c4cnc(N5CCC(F)C5)cn4)ccc3s2)c1 (stereo not shown) [LMD-015] | 46 | 21 | –
Cn1ccc(N2Cc3nc(-c4ccc(N5CCC(F)C5)nc4)ccc3C2=O)n1 (stereo not shown) [LMD-016] | 91 | 48 | –
Cn1ccc(N2Cc3nc(-c4cnc(N5CCC(F)C5)cn4)ccc3C2=O)n1 (stereo not shown) [LMD-017] | 43 | 25 | –
O=C1c2ccc(-c3ccc(N4CCC(F)C4)nc3)nc2CN1c1cccnc1 (stereo not shown) [LMD-019] | 66 | 27 | –
Cn1cnc(N2Cc3nc(-c4ccc(N5CCC(F)C5)nc4)ccc3C2=O)c1 (stereo not shown) [LMD-023] | 99 | 50 | –
FC1CCN(c2ccc(-c3cc4nc(-c5cccnc5)ccc4s3)cn2)C1 (stereo not shown) [LMD-024] | 72 | 13 | 54
FC1CCN(c2ccc(-c3csc4ccc(-c5cccnc5)nc34)cn2)C1 (stereo not shown) [LMD-026] | 56 | 25 | –
FC1CCN(c2ccc(-n3cc4sc(-c5cncs5)cc4n3)cn2)C1 (stereo not shown) [LMD-028] | 81 | 38 | –
FC1CCN(c2cnc(-n3cc4sc(-c5cncs5)cc4n3)cn2)C1 (stereo not shown) [LMD-029] | 34 | 12 | 13
FC1CCC(c2cnc(-n3cc4sccc4n3)cn2)C1 (stereo not shown) [LMD-031] | 66 | 24 | –
F[C@@H]1CCN(c2cnc(-n3cc4sc(-c5cccnc5)cc4n3)cn2)C1 [LMD-033] | 51 | 33 | –
FC1CCN(c2cnc(-c3ccc4sccc4n3)cn2)CC1 [LMD-036] | 65 | 23 | –
FC1CCN(c2cnc(-c3ccc4sccc4n3)cn2)C1 (stereo not shown) [LMD-039] | 57 | 27 | –
FC1CCN(c2ccc(-c3ccc4scc(Br)c4n3)cn2)C1 (stereo not shown) [LMD-040] | 54 | 28 | –

SMILES | % [3H]asyn-44 remaining at 30 nM [1] [%] | % [3H]asyn-44 remaining at 300 nM [1] [%] | Ki [2] [nM]
FC1CCN(c2ccc(-c3ccc4scc(-c5cccnc5)c4n3)cn2)C1 (stereo not shown) [LMD-041] | 77 | 13 | 58
FC1CCN(c2cc(Cl)ncc2-c2ccc3sc(-c4cccnc4)cc3n2)C1 (stereo not shown) [LMD-049] | 89 | 35 | –
Cn1ccc(-c2cc3nn(-c4cnc(N5CCC(F)C5)cn4)cc3s2)n1 (stereo not shown) [LMD-054] | 58 | 15 | 24
Cn1ccc(-c2cc3nc(-c4cnc(N5CCC(F)CC5)cn4)ccc3s2)n1 [LMD-060] | 48 | 29 | –
FC1CCN(c2ccnc(-n3cc4sc(-c5cccnc5)cc4n3)n2)C1 (stereo not shown) [LMD-061] | 56 | 29 | –
FC1CCN(c2cnc(-c3ccc4sc(-c5cncs5)cc4n3)cn2)CC1 [LMD-062] | 43 | 32 | –
Cn1ccc(-c2csc3ccc(-c4ccc(N5CCC(F)C5)nc4)nc23)n1 (stereo not shown) [LMD-063] | 64 | 33 | –
O=C1NCc2nc(-c3ccc(N4CCC(F)C4)nc3)ccc21 (stereo not shown) [LMD-064] | 46 | 26 | –
Cn1ccc(-c2cc3nn(-c4cnc(N5CCC(F)CC5)cn4)cc3s2)n1 [LMD-066] | 76 | 51 | –
Cn1ccc(-c2cc3nn(-c4ccc(N5CCC(F)C5)nn4)cc3s2)n1 (stereo not shown) [LMD-067] | 86 | 28 | –
FC1CCN(c2cc(-n3cc4sc(-c5cccnc5)cc4n3)ncn2)CC1 [LMD-068] | 50 | 34 | –
FC1CCN(c2ccnc(-n3cc4sc(-c5cccnc5)cc4n3)n2)CC1 [LMD-069] | 49 | 31 | –
FC1CCN(c2ccnc(-n3ncc4sc(-c5cccnc5)cc43)n2)C1 (stereo not shown) [LMD-070] | 43 | 22 | –
Cn1ccc(-c2cc3c(cnn3-c3ccc(N4CCC(F)C4)nn3)s2)n1 (stereo not shown) [LMD-072] | 48 | 33 | –
FC1CCN(c2cc(-n3ncc4sc(-c5cccnc5)cc43)ncn2)C1 (stereo not shown) [LMD-073] | 71 | 29 | –
Cn1ccc(-c2cc3nn(-c4cc(N5CCC(F)CC5)ncn4)cc3s2)n1 [LMD-074] | 55 | 45 | –
Cn1ccc(-c2cc3nn(-c4nccc(N5CCC(F)CC5)n4)cc3s2)n1 [LMD-075] | 41 | 19 | –
Cn1ccc(-c2cc3c(cnn3-c3nccc(N4CCC(F)CC4)n3)s2)n1 [LMD-076] | 64 | 22 | –
Cn1ccc(-c2cc3c(cnn3-c3cc(N4CCC(F)CC4)ncn3)s2)n1 [LMD-077] | 67 | 20 | –
